Results published in patent publication US20140255432A1, “SILVESTROL, SILVESTROL ANALOGS AND USES THEREOF” (priority 2011, published 2014).

Experiments:
LMP-1 = assay: Immunoblot of LMP-1 in LCL; format: cell-based, Epstein-Barr virus
Description: (§1) Cells were harvested and lysed as described (Alinari 2011). Following collection of whole cell lysates, equal amounts of protein were resolved by SDS-PAGE and transferred onto a PVDF membrane (Millipore, Billerica, Mass.). Membrane was probed overnight at 4° C. with β-actin, pSTAT1, pSTAT3, STAT1, STAT3, pAkt, Akt (Cell Signaling Technology, Danvers, Mass.), or LMP-1 (DakoCytomation, Carpinteria, Calif.). After incubation with HRP-conjugated secondary antibody (Cell Signaling Technology), protein was detected with SuperSignal West Pico Chemiluminescent Substrate (Pierce, Rockford, Ill.).
Whole cell protein levels of LMP-1 was evaluated by immunoblot 72 hr after treating with a single dose (10 nM) of silvestrol in seven LCL lines (FIG. 3A). β-actin was included as a loading control. In FIG. 3B, LCL were incubated 24, 72, and 120 hr in the presence of 10 nM silvestrol or vehicle control. Whole cell lysates were immunoblotted for LMP-1. Results are representative of 3 LCL lines. […] Decreases in other latent gene products involved with EBV-driven B cell transformation were observed as well. In FIG. 3D, LCL were incubated as in FIG. 3B and immunoblotted for STAT1, STAT3, AKT and NF-κB p65.

[1] = test system: EBV LMP-1 oncogene transcript; assay: EBV LMP-1 oncogene transcript expression in LCL; format: cell-based, Epstein-Barr virus; settings: three cell lines; days 1, 3, 5 (FIG. 46)
From the text: FIG. 41 presents data regarding NK cytotoxicity of K562 cells. […] FIG. 42 presents data regarding the cytotoxicity of LCLs pretreated with BZLF 1. […] BZLF1 antigen pulsed LCLs promoted enhanced killing in untreated and silvestrol-treated CTLs. FIG. 43 presents data relating to CD4 IFNgamma release with LCL pretreated with BZLF1. […] FIG. 44 presents data relating to CD4 IFNgamma release with LCL pretreated with BZLF 1. […] FIG. 45 presents data relating to interleukin-6 induction by silvestrol. […] FIG. 46 presents data relating to a change in LMP-1 expression following silvestrol treatment. […] Three cell lines were examined on days 1, 3, and 5 following treatment. FIG. 47 presents data relating to a change in EBNA1 expression following silvestrol treatment. Three cell lines were examined on days 1, 3, and 5 following treatment.

[2] = Pharmacokinetics work in mice; format: in vivo
[3] = test system: STAT1, STAT3, AKT and NF-κB p65; assay: Immunoblot of LMP-1 downstream pathways in LCL; format: cell-based, human
Description: as §1
Through its cytoplasmic C-terminal-activating region 1 (CTAR1), LMP-1 constitutively activates multiple pro-survival signaling pathways including NF-κB, PI3K/AKT, and STATs 1 and 3 (Shair 2007; Gires 1999; Dawson 2003; Kung 2008; Kung 2011) similar to an external growth stimulus. Thus, LMP-1 directly and indirectly promotes tumor cell growth and survival through diverse mechanisms. To investigate the effects of silvestrol on these pathways, LCLs were incubated for 24, 72, and 120 hr with vehicle or 10 nM silvestrol, and cell extracts were analyzed by immunoblot. […] Using the same treatment conditions, a decrease in the levels of both total Akt and its activated, phosphorylated form was observed. […] Total levels of NF-κB proteins such as p50, p105, and IKBa were unchanged (left panel), as were Bcl2 family proteins such as Bcl2, Mel1, and Bax (right panel) (FIG. 36).

NK cells against LCL = assay: Antibody-dependent cell-mediated cytotoxicity (ADCC) assay of NK cells with rituximab; format: cell-based, human
Description: Non-radioactive flow cytometry-based cytotoxicity assays have been described previously (Godoy-Ramirez 2005; Helguera 2011). Co-cultures of PBMC and irradiated LCL were grown in the presence or absence of silvestrol for 14 d and collected. Fresh autologous LCL cells were stained with 200 nM carboxyfluorescein diacetate succinimidyl ester (CFSE) (CellTrace™, Invitrogen) for 15 min at 25° C. prior to being mixed with effectors from the irradiated co-cultures at an effector:target (E:T) ratio of 20:1 for 4 hr at 37° C. After the incubation, cells were stained with 7-aminoactinomycin D (7AAD) (BD Biosciences, San Diego, Calif.) and washed. Cytotoxicity was measured by gating on the CFSE-positive events and measuring the 7AAD-positive cells. (See FIGS. 31 and 32). For antibody-dependent cell-mediated cytotoxicity (ADCC) assays the same technique was used; however, the co-cultured effectors were natural killer (NK) cell-enriched and were incubated in the presence or absence of 5 μg/mL rituximab or herceptin (negative control) (Genentech, Inc., South San Francisco, Calif.) for 4 hr at 37° C.
Next, antibody-dependent cell-mediated cytotoxicity (ADCC) assays were utilized to measure the innate immune response of NK cells to LCL in the presence of silvestrol. […] Fresh CFSE-labeled LCL targets and autologous NK cells were incubated with the monoclonal antibodies rituximab (anti-CD20, expressed on LCL) or herceptin (anti-HER2, not expressed on immune cells). After 4 hr, ADCC was evaluated using CFSE and 7-AAD staining as described above. Specifically, cytotoxicity was measured by CFSE^+/7AAD^+ events. Data are shown relative to the positive control (effectors+targets+ritux) and are the averages of three individual experiments. Bars show −/+ standard deviation.
To determine the acute effect of silvestrol on ADCC, fresh (non-autologous) NK cells were obtained from enriched leukocyte products, incubated 18 hr with or without 10 nM silvestrol, then washed and mixed with CFSE-stained LCL. […]

## COC(=O)[C@H]1[C@@H](O)[C@@]2(O)c3c(OC)cc(O[C@@H]4O[C@@H]([C@H](O)CO)CO[C@H]4OC)cc3O[C@@]2(c2ccc(OC)cc2)[C@@H]1c1ccccc1 [silvestrol]
LMP-1; 10 nM, 5 days, cells from seven donors (FIG. 3A)
  LMP1 protein levels: reduced LMP1 protein levels
LMP-1; single 10 nM dose, 24, 72, 120 hr (FIG. 3B)
  LMP-1 levels over time: fall incrementally as a function of time
[1]
  expression of the EBV LMP-1 oncogene transcript: decreased
[2]
  concentration attainable in vivo: 10 nM
[3]; 10 nM, 24, 72, 120 hr
  phosphorylated (activated) STAT1 level: decreased
  phosphorylated (activated) STAT3 level: decreased
  phosphorylated Akt level: a decrease
  total Akt level: a decrease
  total STAT1 level: remained unchanged
  total STAT3 level: remained unchanged
  total p65 levels: relatively unchanged
[3]; FIG. 36 left panel
  total levels of NF-κB proteins p50, p105, IKBa: unchanged
[3]; FIG. 36 right panel
  Bcl2 family proteins Bcl2, Mcl1, Bax: unchanged
NK cells against LCL; 10 nM, 24 hr pretreatment, DC9 LCLs (FIG. 19)
  ADCC activity of NK cells incubated in media vs. silvestrol: equivalent ADCC activity
NK cells against LCL; 18 hr pre-incubation with 10 nM, p=0.854
  ADCC activity of freshly isolated (non-autologous) NK cells: no observable effect
NK cells against LCL; autologous NK cells, 10 nM for 14 days, p=0.838
  rituximab-dependent cytotoxic activity of NK cells, expanded with vs. without silvestrol: similar
